Reference: patent US12678412B2, “Substituted tolans for the modulation of microbial colonization” (BioMendics, LLC, priority 2017, dated 2026)
Like-named read-outs stand apart in the source and are kept apart here.

How the values were obtained:
[1] = system: E. coli WP2 uvrA pKM101; format: cell-based; settings: without metabolic activation
Method: A series of dose range finding assays were performed with five bacterial strains, S. typhimurium TA97a, TA98, TA100, TA1535, and E. coli WP2 uvrA pKM101, with and without metabolic activation at three plates per dose. The following doses, along with positive and negative controls, were tested: 5000, 2500, 1250, 500, 250, 125, 50, 20, 10, 5, 2, 1, and 0.2 μg/plate. The plates were evaluated for toxicity (a decrease in plate counts with increasing dose and/or a visible thinning of the background lawn) and for precipitation of the test article. Metabolic activation was included in some samples by adding phenobarbital/benzoflavone-induced rat liver S9 fractions with cofactors (S9 mix). Prior to use, freshly thawed aliquots of rat liver S9 were mixed with a sterile cofactor mix. The S9 mix contains a 10% liver S9 concentration and was refrigerated or stored on ice until used. When testing with metabolic activation, the S9 mix was used in the assay tube in place of phosphate buffer.
Dosing formulations were prepared to deliver all doses in a constant volume of 0.1 mL. The highest dose was prepared from test article weighed to the nearest 0.1 mg and the remaining formulations were prepared as serial dilutions from the high dose stock formulation. Using a permanent marking pen or computer printed labels, assay plates were labeled with the project and study numbers and the date. Assay plates and tubes were labeled with a unique identifier, which was used to match the assay tubes with the properly identified minimal glucose agar plate.
The pre-incubation method was used to perform the assay. The assay mix consisted of 0.1 mL of the test article formulation or control article, 0.5 mL S9 mix or phosphate buffer, and 0.1 mL of bacterial culture. Assay tubes were incubated at 37±1° C. with gentle agitation for 20±1 minutes, then 2.0-2.5 mL top agar was added to the assay mix and the top agar/assay mix poured onto appropriately labeled minimal glucose agar plates. Once the top agar hardened, the plates were inverted and incubated at 37±1° C. for 48±2 hours. Plates were counted with the Sorcerer (v. 2.2)/Ames Study Manager (v. 1.2.4) system from Perceptive Instruments (Suffolk, UK). With this system, plate counts are automatically transferred from the plate imager (Sorcerer) to a Study Manager spreadsheet, and the data are stored in a secure manner on an Oracle database. Some plates were hand counted, e.g., if sample precipitate interferes with automatic counting or toxicity results in the formation of microcolonies, in which case, counts for these plates were entered into the spreadsheet manually. Plates were scored also with the extent of colonization by a post fix code.

[2] = system: Methicillin Resistant Staphylococcus aureus (MRSA, USA 400); assay: Colony forming assay, 24 h plate assay, MRSA USA 400; format: cell-based
Method: Proliferating cultures of Methicillin Resistant Staphylococcus aureus (MRSA, USA 400) were used in a colony forming assay. Frozen stock cultures of MRSA USA 400 were thawed and grown overnight in tryptic soy broth (TSB) with shaking at 37° C. The overnight culture (0.5-1.0 mL) was added to 100 mL TSB and grown at 37° C. with shaking and monitored for an optical density of 0.55-0.60 in order to obtain a final inoculum suspension of approximately 10^8 CFU/mL.
BM3103 was suspended into a 70% v/v alcohol gel formulation to acquire the desired % w/v tested within the example. Each concentration was vortexed thoroughly until dissolved. Initial tested concentrations of BM3103 were 1, 0.5, and 0.1% w/v. These concentrations and the alcohol gel vehicle were mixed with equal parts of the 10^8 CFU/mL inoculum to obtain a final concentration of 0.5, 0.25, and 0.05% (22 mM, 11 mM, and 2 mM) BM3103. Tobramycin (600 μg/mL) served as the positive control. Vehicle and BM3103 formulations contained matching final concentration of 35% v/v alcohol.
BM3103 was dissolved into Transcutol (diethylene glycol monoethyl ether) at 2.5% w/v and vortexed until dissolved. This concentration was then serial diluted to achieve the remaining concentrations tested. Before plating, 100 μL of the final inoculum (10^8 CFU/mL) was mixed with 20 μL TSB broth and 80 μL of BM3103 doses or vehicle. Tobramycin, 600 μg/mL, served as the positive control. The final plating concentrations for BM3103 were 1, 0.5, 0.25, and 0.1% w/v (44 mM, 22 mM, 11 mM, 4 mM) BM3103. Vehicle and BM3103 formulations contained matching final concentration of 40% v/v Transcutol.
The above listed formulations combined with the MRSA inoculum were plated onto TSB agar plates. The plates were grown at 37° C. for 24 h, imaged, and the bacteria colonies were counted. The experiment was done in triplicate at each concentration level described above. Colony counts for each treatment were tabulated and the Log of the colony forming units/mL (Log CFU/mL) were determined. The mean and the standard error of the mean were calculated for each treatment.

[3] = system: MRSA USA 400 biofilms; assay: Treatment of an existing biofilm; format: cell-based, Staphylococcus aureus
Method: For the treatment of MRSA USA 400 biofilms, the same 96 well plate assay procedure was used as described in the biofilm inhibition section above. However, the MRSA USA 400 inoculum (10^8 CFU/mL) grew overnight at 37° C. in the absence of BM3103 and without shaking. After 24 h of biofilm formation, BM3103 was serially diluted across a 96 well plate from of 1 mM to 0.002 mM. The plate was incubated again overnight at 37° C. without shaking.

[4] = system: wild type E. Coli; assay: Control of microbial growth, wild type E. coli; format: cell-based

COc1ccc(C#Cc2ccc(O)cc2)cc1 [BM3103, 4-hydroxy-4′-methoxytolan]
Colony forming units/plate ([1]; 20 μg/plate): 138.0 colony forming units/plate
Individual colony counts ([1]; 20 μg/plate): 138
Colony forming units/plate ([1]; 50 μg/plate): 14.0 colony forming units/plate
Individual colony counts ([1]; 50 μg/plate): 14
Colony forming units/plate ([1]; 125 μg/plate): 0.0 colony forming units/plate
Individual colony counts ([1]; 125 μg/plate): 0
Colony forming units/plate ([1]; 250 μg/plate): 0.0 colony forming units/plate
Individual colony counts ([1]; 250 μg/plate): 0
Plate postfix code (individual colony counts) ([1]; 250 μg/plate): A P
Colony forming units/plate ([1]; 500 μg/plate): 0.0 colony forming units/plate
Individual colony counts ([1]; 500 μg/plate): 0
Plate postfix code (individual colony counts) ([1]; 500 μg/plate): A P
Colony forming units/plate ([1]; 1250 μg/plate): 0.0 colony forming units/plate
Individual colony counts ([1]; 1250 μg/plate): 0
Colony forming units/plate ([1]; 2500 μg/plate): 0.0 colony forming units/plate
Individual colony counts ([1]; 2500 μg/plate): 0
Plate postfix code (individual colony counts) ([1]; 2500 μg/plate): A P
Colony forming units/plate ([1]; 5000 μg/plate): 0.0 colony forming units/plate
Individual colony counts ([1]; 5000 μg/plate): 0
Plate postfix code (individual colony counts) ([1]; 5000 μg/plate): A P
Reduction of MRSA USA 400 counts ([2]; 0.05% w/v, 2 mM, alcohol gel formulation, compared to the vehicle control, FIG. 9): 4 fold
Reduction of MRSA USA 400 counts ([2]; 0.1% BM3103, Transcutol formulation, FIG. 10): > 5 fold
Bacterial count of MRSA USA 400 ([2]; 0.25% BM3103, alcohol gel formulation, FIG. 9): no bacterial count
Bacterial count of MRSA USA 400 ([2]; 0.5% BM3103, alcohol gel formulation, FIG. 9): no bacterial count
Bacterial count of MRSA USA 400 ([2]; remaining concentrations tested (1, 0.5, 0.25% w/v), Transcutol formulation, FIG. 10): no bacterial count
Reduction of established MRSA USA 400 biofilm ([3]; 0.008 mM, 24 h treatment of 24 h biofilm, FIG. 14C): slight reduction in the biofilm
Reduction of established MRSA USA 400 biofilm ([3]; 0.0625 mM or above, 24 h treatment of 24 h biofilm, FIG. 14B): reduced the biofilm of MRSA USA 400 significantly
Reduction of established MRSA USA 400 biofilm ([3]; 0.125 mM, 24 h treatment of 24 h biofilm, FIG. 14A): reduced the biofilm of MRSA USA 400 significantly
Reduction of established MRSA USA 400 biofilm ([3]; concentrations below 0.002 mM, FIG. 14D): no reduction in the biofilm
Effectiveness against wild type E. Coli [4]: effective
